Data: patent US9751869B2, “LXR modulators” (BRISTOL-MYERS SQUIBB COMPANY, priority 2013, dated 2017)

Biological target: T1, LXRβ (Homo sapiens, UniProt P55055)
T1 construct: Co-transfection expression plasmids, comprising full-length LXRα (pCMX-h LXRα or LXRβ (pCMX-hLXRβ)); expressed in transfected cells; host or cells: CV-1 African green monkey kidney cells, transient transfection with pCMX-hLXRβ
T1 sequence (P55055 1-460): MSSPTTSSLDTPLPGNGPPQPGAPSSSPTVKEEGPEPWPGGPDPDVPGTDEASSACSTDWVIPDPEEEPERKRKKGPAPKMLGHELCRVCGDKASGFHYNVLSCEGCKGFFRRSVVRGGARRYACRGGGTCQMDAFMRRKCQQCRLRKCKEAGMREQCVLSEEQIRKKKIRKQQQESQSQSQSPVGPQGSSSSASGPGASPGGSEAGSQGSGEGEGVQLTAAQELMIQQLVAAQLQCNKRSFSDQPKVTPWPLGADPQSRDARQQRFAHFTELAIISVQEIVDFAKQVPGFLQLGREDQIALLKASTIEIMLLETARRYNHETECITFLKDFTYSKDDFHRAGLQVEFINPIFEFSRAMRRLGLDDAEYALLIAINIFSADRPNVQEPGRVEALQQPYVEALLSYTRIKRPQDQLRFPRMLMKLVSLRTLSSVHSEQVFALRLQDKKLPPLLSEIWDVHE
T1 sequence (P19793 1-462 partner): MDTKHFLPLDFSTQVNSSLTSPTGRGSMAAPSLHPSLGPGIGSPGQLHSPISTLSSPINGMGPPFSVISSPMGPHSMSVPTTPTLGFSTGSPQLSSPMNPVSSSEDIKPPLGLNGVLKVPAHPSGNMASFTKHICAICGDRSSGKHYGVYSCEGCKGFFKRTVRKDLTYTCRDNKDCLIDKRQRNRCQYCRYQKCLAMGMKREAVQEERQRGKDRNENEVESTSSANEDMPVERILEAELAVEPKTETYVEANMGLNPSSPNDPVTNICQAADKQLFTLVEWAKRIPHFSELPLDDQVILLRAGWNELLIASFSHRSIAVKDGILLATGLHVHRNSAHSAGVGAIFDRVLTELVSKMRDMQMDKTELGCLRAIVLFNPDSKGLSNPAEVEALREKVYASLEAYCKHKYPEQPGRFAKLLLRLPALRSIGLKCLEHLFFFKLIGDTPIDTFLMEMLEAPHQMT
Test: LXR/LXRE co-transfection assay (luciferase reporter) in CV-1 cells, LXRβ
Type: cell-based
Details: for EC50: CV-1 cells transfected with pCMX-hLXRβ and LXREx1-Tk-Luciferase, 20 hours incubation, read-out: LXRbeta agonism EC50; for Emax: CV-1 cells, relative to maximum response of high control N-(3-((4-fluorophenyl)-(naphthalene-2-sulfonyl)amino)propyl)-2,2-dimethylpropionamide, read-out: LXRbeta % EFFICACY
Method in brief: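 Luciferase read-out after 20 h compound treatment at 37 °C of CV-1 cells carrying transfected hLXRβ plus one-copy LXRE reporter, endogenous RXR partnering. Sigmoidal fit of 10-point half-log curves (4 wells each) gave EC50; % efficacy versus maximal response of the propionamide reference agonist.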

EC50	Emax	Compound
4 nM	98%	Cc1nc(-c2cc(F)c(OC(F)F)c(F)c2)c(-c2cc(-c3cc(F)c(CO)c(S(C)(=O)=O)c3)ccc2-n2cc(Cl)c(C(F)(F)F)n2)o1 [Example 422, (4′-(4-chloro-3-(trifluoromethyl)-1H-pyrazol-1-yl)-3′-(4-(4-(difluoromethoxy)-3,5-difluorophenyl)-2-methyloxazol-5-yl)-3-fluoro-5-(methylsulfonyl)-[1,1′-biphenyl]-4-yl)methanol]
30 nM	28%	Cc1nc(-c2ccc(OC(F)(F)F)cc2)c(-c2cc(-c3cc(F)c(CO)c(S(C)(=O)=O)c3)ccc2-n2cc(C#N)c(C3CC3)n2)o1 [Example 446, 3-cyclopropyl-1-(3′-fluoro-4′-(hydroxymethyl)-3-(2-methyl-4-(4-(trifluoromethoxy)phenyl)oxazol-5-yl)-5′-(methylsulfonyl)-[1,1′-biphenyl]-4-yl)-1H-pyrazole-4-carbonitrile]
19 nM	62%	Cc1nc(-c2ccc3c(c2)OC(F)(F)O3)c(-c2cc(-c3cc(F)c(CO)c(S(C)(=O)=O)c3)ccc2-c2cc(C(C)C#N)nn2C)o1 (stereo not shown) [Example 115, 2-(5-(3-(4-(2,2-difluorobenzo[d][1,3]dioxol-5-yl)-2-methyloxazol-5-yl)-3′-fluoro-4′-(hydroxymethyl)-5′-(methylsulfonyl)-[1,1′-biphenyl]-4-yl)-1-methyl-1H-pyrazol-3-yl)propanenitrile]
2040 nM	45%	Cc1cc(C(C)(F)F)nn1-c1ccc(-c2cc(F)c(CO)c(S(C)(=O)=O)c2)cc1-n1nncc1-c1ccc(OC(F)(F)F)cc1 [Example 305, {4′-[3-(1,1-difluoroethyl)-5-methyl-1H-pyrazol-1-yl]-3-fluoro-5-(methylsulfonyl)-3′-(5-{4-[(trifluoromethyl)oxy]phenyl}-1H-1,2,3-triazol-1-yl)biphenyl-4-yl}methanol]
82 nM	79%	Cc1nc(-c2cc(-c3ccc(CO)c(S(C)(=O)=O)c3)ccc2-n2nc(C(F)(F)F)cc2C)c(-c2ccc(OC(F)(F)F)cc2)o1 [Example 387, (4′-(5-methyl-3-(trifluoromethyl)-1H-pyrazol-1-yl)-3′-(2-methyl-5-(4-(trifluoromethoxy)phenyl)oxazol-4-yl)-3-(methylsulfonyl)biphenyl-4-yl)methanol]
59 nM	33%	Cc1nc(-c2ccc3c(c2)OC(F)(F)O3)c(-c2cc(-c3cc(F)c(CO)c(S(C)(=O)=O)c3)ccc2-c2cc(C(F)(F)C(=O)NC(C)C)nn2C)o1 [Example 82, 2-(5-(3-(4-(2,2-difluorobenzo[d][1,3]dioxol-5-yl)-2-methyloxazol-5-yl)-3′-fluoro-4′-(hydroxymethyl)-5′-(methylsulfonyl)biphenyl-4-yl)-1-methyl-1H-pyrazol-3-yl)-2,2-difluoro-N-isopropylacetamide]
70 nM	82%	CCC(F)(F)c1cc(-c2ccc(-c3cccc(S(C)(=O)=O)c3)cc2-n2nncc2-c2ccc(OC(F)(F)F)cc2)n(C)n1 [Example 9, 1-(4-(3-(1,1-difluoropropyl)-1-methyl-1H-pyrazol-5-yl)-3′-(methylsulfonyl)biphenyl-3-yl)-5-(4-(trifluoromethoxy)phenyl)-1H-1,2,3-triazole]
4780 nM	37%	Cc1nc(-c2ccc3c(c2)OC(F)(F)O3)c(-c2cc(-c3cc(F)c(CO)c(S(C)(=O)=O)c3)ccc2-c2cc(C(F)(F)C(=O)NCC(N)=O)nn2C)o1 [Example 89, N-(2-amino-2-oxoethyl)-2-(5-(3-(4-(2,2-difluorobenzo[d][1,3]dioxol-5-yl)-2-methyloxazol-5-yl)-3′-fluoro-4′-(hydroxymethyl)-5′-(methylsulfonyl)biphenyl-4-yl)-1-methyl-1H-pyrazol-3-yl)-2,2-difluoroacetamide]
